Experimental data as given in US20220096449A1, “METHOD OF TREATMENT WITH TRADIPITANT” (Vanda Pharmaceuticals Inc., priority 2018, published 2022).
Values joined by “and” are separate entries in the source; they are usually repeats but may differ in a detail not shown here. Equal values may be shown once.

Key:
[1] = target: T1, NK-3 receptor (Homo sapiens, UniProt P29371); assay: NK-3 receptor inhibition; type: binding
T1 sequence (P29371 1-465): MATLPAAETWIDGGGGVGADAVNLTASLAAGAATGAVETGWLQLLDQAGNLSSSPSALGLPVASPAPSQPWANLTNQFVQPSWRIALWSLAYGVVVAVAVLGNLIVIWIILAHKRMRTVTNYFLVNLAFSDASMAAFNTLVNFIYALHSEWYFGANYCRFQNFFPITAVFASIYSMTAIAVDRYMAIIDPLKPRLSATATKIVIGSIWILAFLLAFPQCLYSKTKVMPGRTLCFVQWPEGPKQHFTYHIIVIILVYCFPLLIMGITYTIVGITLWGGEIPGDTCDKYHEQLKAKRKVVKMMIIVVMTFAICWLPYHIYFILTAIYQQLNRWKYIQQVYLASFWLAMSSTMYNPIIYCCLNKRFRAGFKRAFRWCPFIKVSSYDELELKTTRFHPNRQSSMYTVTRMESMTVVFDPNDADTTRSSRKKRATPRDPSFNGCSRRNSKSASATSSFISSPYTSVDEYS

[2] = tested on: panel of 74 other receptors, enzymes, and ion channels; assay: Binding panel of 74 other receptors, enzymes and ion channels; conditions: test concentration of 1 μM; any of 74 targets
[3] = tested on: patients with gastroparesis; assay: Phase II gastroparesis study, open label extension (Example 4); type: in vivo, human
Text: In a phase II study of tradipitant in patients with gastroparesis, participants initially enter 4 week screening period prior to treatment with tradipitant, during which they answer a daily symptom questionnaire rating their nausea severity on a scale of 0 to 5, in which 0 represents no nausea, 1 represents very mild nausea, 2 represents mild nausea, 3 represents moderate nausea, 4 represents severe nausea, and 5 represents very severe nausea. After the 4 week screening period, patients enter the double blind randomized portion of the study, in which they receive either tradipitant 85 mg bid, or placebo. After 4 weeks of blinded study drug treatment, patients have the opportunity to enter an additional 8 week open label extension, during which each subject receives tradipitant 85 mg bid. 64 subjects participate in at least one week of the open label tradipitant dosing portion of the study. The average daily diarized nausea scores are reported for subjects during the 4 week screening period and during the up to 8 week open label extension.

[4] = Plasma concentration of tradipitant 2 hours post-dose in dogs; type: in vivo, beagle dog; conditions: individual dogs
Protocol: All animals are dosed over a period of five (5) weeks, with each dog receiving one of five different treatments on each day of dosing. […] In cases where apomorphine is administered alone, without prior treatment with tradipitant or aprepitant, apomorphine is given at approximately the same time as when given in combination with tradipitant or aprepitant.

[5] = target: NK-1 receptor (Meriones unguiculatus, UniProt Q5DUB1); assay: NK-1 agonist (GR73632)-induced foot-tapping behavior in gerbils; type: in vivo; design: from tissue; host or cells: living gerbils (central NK-1 receptors); conditions: gerbil
Chain of NK-1 receptor (Q5DUB1 whole entry): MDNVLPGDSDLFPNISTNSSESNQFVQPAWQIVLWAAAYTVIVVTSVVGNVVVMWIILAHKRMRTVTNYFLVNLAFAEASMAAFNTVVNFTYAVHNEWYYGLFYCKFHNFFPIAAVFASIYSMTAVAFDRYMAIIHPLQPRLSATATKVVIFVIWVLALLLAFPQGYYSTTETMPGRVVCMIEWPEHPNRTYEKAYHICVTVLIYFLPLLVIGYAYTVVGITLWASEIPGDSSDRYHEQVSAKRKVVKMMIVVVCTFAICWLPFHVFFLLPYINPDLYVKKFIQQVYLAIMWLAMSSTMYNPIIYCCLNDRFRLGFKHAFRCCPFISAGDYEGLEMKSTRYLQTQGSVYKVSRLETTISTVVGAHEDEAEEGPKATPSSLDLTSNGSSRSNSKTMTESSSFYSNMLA
Protocol: Male Mongolian gerbils (Harlan Sprague Dawley, Indianapolis, Ind.) weighing 26 to 40 grams are administered the selective neurokinin-1 receptor agonist GR73632 ([…]) via direct, vertical, free-hand intracerebroventricular (icv) injection to a depth of 4.5 mm below bregma with a cuffed 27-gauge needle attached to a 50 μl Hamilton syringe Immediately after injection, animals are placed individually into isolated chambers with pressure-sensitive velocimeter platform floors (San Diego Instruments acoustic startle apparatus) that detect and quantify vibration. The San Diego Instruments “SR” DOS-based computer program is used on a PC to record the number of foot-taps over the following 6 to 10 minutes, beginning 30 seconds after the floor is lightly tapped. Raw data are converted with a Microsoft® Excel® (Microsoft® and Excel® are registered trademarks of Microsoft Corp., Redmond, Wash.) macro that determines the number of events over threshold (125) in each 250-millisecond time bin over the 5.5 minutes following onset of observation. The total number and average intensity of events over the duration is determined. Total number of taps is analyzed with one-way ANOVA and post-hoc Dunnett's test using JMP statistical software.
A dose-response curve (with doses of 0.3, 1, 3 and 10 pmols, icv) is initially generated with the NK-1 agonist GR73632.
NK-1 antagonists are tested for their ability to attenuate GR73632-induced foot tapping. NK-1 antagonists are administered (po) via oral feeding tube at doses and time points specified in each experiment. All animals receive only one dose of NK-1 antagonists in all tests.
NK-1 antagonists are administered at multiple doses (at least 3; one dose per animal) and response to GR73632 is measured.
NK-1 receptor antagonists are administered at multiple pre-treatment times (one administration per animal) including at 0.5, 1, 2, 4, 7, 16, and 24 hours prior to GR73632 injection. GR73632 (Peninsula Labs, CA) is dissolved in saline. Tradipitant is dissolved in 1% CMC/0.5% SLS/0.085% PVP vehicle.

[6] = tested on: healthy subjects; assay: Gamma scintigraphic gastrointestinal motility study in healthy subjects; type: in vivo, human; conditions: single oral dose 20 mg or 200 mg
Protocol: A single-center, randomized, double-blind, placebo-controlled study is conducted to investigate the effect of tradipitant on small bowel transit time. A total of 15 healthy subjects, 12 men and 3 women, between the ages of 19 and 63 years are enrolled in the study and receive at least 1 dose of study medication. A total of 13 subjects complete the study. Subjects are randomized to receive 20 mg of tradipitant, 200 mg of tradipitant, or placebo as a single oral dose within each of 3 periods, co-administered with a capsule radiolabeled with a maximum of 1MBq ^111In. Four hours post-dose, all subjects also receive a second capsule radiolabeled with a maximum of 4MBq ^99mTc. Each subject receives all 3 doses during the study. For all dosing regimens, in vivo gamma scintigraphic studies are performed at predetermined intervals, and the following scintigraphic parameters are analyzed: onset and completion of gastric emptying, onset and completion of colon arrival, initiation and completion of small bowel transit, and initial and complete disintegration of the capsule (anatomical location and time).

[7] = tested on: brain NK-1 receptors; assay: Brain NK-1 receptor occupancy with tracer GR205171; type: in vivo; conditions: p.o., tracer GR205171 iv
Protocol: A tracer NK-1 antagonist compound (GR205171) is used to evaluate the ability of other NK-1 antagonists to occupy the brain NK-1 receptors. In these studies, the test compounds are administered orally and the tracer compound is administered intravenously afterward. The occupancy of the NK-1 receptors is evaluated by quantitating the amount of the tracer compound bound to the brain NK-1 receptors after increasing doses of the test compounds.

O=C(c1ccccc1Cl)c1cccnc1-c1nnn(Cc2cc(C(F)(F)F)cc(C(F)(F)F)c2)c1-c1ccncc1 [Tradipitant, {2-[1-(3,5-bistrifluoromethylbenzyl)-5-pyridin-4-yl-1H-[1,2,3]triazol-4-yl]-pyridin-3-yl}-(2-chlorophenyl)-methanone]
inhibition at NK-3 receptor [1]: no significant inhibition | inhibition of binding [2]: ≤ 50% | mean daily nausea score ([3]; 0 to 5 scale, open label 85 mg bid for 1 to 8 weeks, 64 patients): about 1.63 | median daily nausea score ([3]; 0 to 5 scale, open label extension 85 mg bid, 64 subjects): 1.35 | change of average percentage of nausea-free days compared to pre-treatment ([3]; 85 mg bid): doubled or greater | reduction of average daily nausea scores compared to pre-treatment ([3]; 85 mg bid): reduced by approximately one half | mean percentage of days nausea-free ([3]; open label extension 85 mg bid): 45.91% | median percentage of nausea-free days ([3]; open label extension 85 mg bid): 49.11% | Concentration of tradipitant in plasma ([4]; 0.3 mg/kg oral): 90.93 ng/mL and 83.38 ng/mL and 22.59 ng/mL and 51.20 ng/mL and 41.33 ng/mL | Concentration of tradipitant in plasma ([4]; 1.0 mg/kg oral): 240.84 ng/mL and 100.97 ng/mL and 61.56 ng/mL and 175.58 ng/mL and 86.49 ng/mL | Concentration of tradipitant in plasma ([4]; 3.0 mg/kg oral): 316.20 ng/mL and 682.91 ng/mL and 119.79 ng/mL and 122.73 ng/mL and 256.58 ng/mL | time after administration with significant inhibition of foot-tapping ([5]; 0.1 mg/kg po): up to 7 hours | effect on foot-tapping by 16 hours after administration ([5]; 0.1 mg/kg po, 16 hours): significantly diminished | inhibition at 1 mg/kg ([5]; 1 mg/kg, 16 hours after administration): > 50% | ED50 ([5]; oral, 2 hours after administration, GR73632 3 pmol icv, read-out: ED50, inhibition of foot-tapping behavior): 0.03 ± 0.004 mg/kg | effect on small bowel transit time [6]: statistically significant effect | effect on gastric emptying ([6]; study underpowered): No effect | ED50, occupancy of brain NK-1 receptors [7]: 0.04 mg/kg
